Broadly, the inhibition is the percentage by which the read-out fell short of the control.

T1 sequence (P04626 676-1255 limits assumed): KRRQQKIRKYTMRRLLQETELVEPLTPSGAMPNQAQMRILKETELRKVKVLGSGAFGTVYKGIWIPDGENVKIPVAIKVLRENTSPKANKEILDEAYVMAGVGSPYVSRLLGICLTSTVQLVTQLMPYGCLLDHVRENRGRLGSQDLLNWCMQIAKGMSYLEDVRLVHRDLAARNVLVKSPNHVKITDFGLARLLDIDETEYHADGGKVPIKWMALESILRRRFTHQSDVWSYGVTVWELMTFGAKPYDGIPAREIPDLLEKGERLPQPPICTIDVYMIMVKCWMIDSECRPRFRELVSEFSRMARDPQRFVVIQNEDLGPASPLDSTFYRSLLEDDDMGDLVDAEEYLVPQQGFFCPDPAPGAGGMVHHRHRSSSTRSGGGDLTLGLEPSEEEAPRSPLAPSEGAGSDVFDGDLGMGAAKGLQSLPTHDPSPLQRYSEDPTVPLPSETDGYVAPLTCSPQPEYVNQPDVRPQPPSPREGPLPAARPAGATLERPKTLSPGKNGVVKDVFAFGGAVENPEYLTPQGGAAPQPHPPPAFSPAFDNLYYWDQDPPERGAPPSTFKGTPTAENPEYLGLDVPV

One experiment addresses T1, HER2 kinase (intracellular domain of HER2) (Homo sapiens, UniProt P04626).
T1 construct: FLAG (N); made in house; host or cells: SF-21 insect cells infected with recombinant baculovirus BAC-HER2
The experiment is described as follows: Measurement of inhibition activity of HER2 kinase. Type of experiment: biochemical. Particulars: test compound 1.0 μM, poly-Glu:Tyr(4:1) substrate, [γ-32P]ATP, 25° C. 10 minutes, read-out: Inhibition rate (%) in 1.0 μM. As for the experimental part: Cloning of Human HER2 Gene was performed with RT-PCR templating total RNA prepared from MCF 7 cell. To attach Flag tag in N-terminal of HER2, a primer used in RT-PCR was manufactured by adding flag peptide coding sequence and restricted enzyme recognition sequence to the base sequence (2176-3918 in Genbank Accession M11730) which codes a part of intracellular domain of the protein using an information of base sequence of HER2 Gene (Genbank Accession M11730). Base sequence of the primer was shown as below.
(§1) RT reaction was performed using a SuperScript First-Strand Synthesis system for RT-PCR (Invitrogen), and PCR reaction was performed using a KOD-plus kit (TOYOBO). The obtained PCR product was subjected to electrophoresis on agarose gel (1%), and digested with Sal I and Sph I after collecting a DNA fragment amplified by PCR from the gel. The DNA treated with restricted enzymes was subjected to electrophoresis on agarose gel (1%), the obtained DNA fragment was collected, and ligated to a plasmid pFASTBAC1 (Invitrogen) digested with restricted enzymes Sal I and Sph I, resulting that expression plasmid pFB-HER2 was manufactured. Base sequence of inserted fragment was confirmed. As a result, the base sequence of inserted fragment was corresponded with base sequence of the intracellular domain of the HER2 (pp. 2176-3918 in Genbank Accession M11730). Further, a recombinant baculovirus BAC-HER2 was prepared using BAC-TO-BAC Baculovirus Expression System (Invitrogen).
A SF-21 cell was plated with 1×10^6 cells/ml in a Sf-900II SFM medium (Invitrogen) containing 10% of fetal bovine serum (Trace), 50 mg/L of Gentamicin (Invitrogen) and 0.1% of Pluronic F-68 (Invitrogen), and cultured with shaking at 27° C. at 100 rpm using a 2 L meyer. After culturing for 24 hours, 13.4 ml of a recombinant baculovirus BAC-HER2 was added thereto, and further cultured for 3 days. The cultured solution was centrifuged at 2,000 rpm for 5 minutes, and a virus-infected cell was obtained. The cell was washed with phosphate buffered saline (Invitrogen), centrifuged under the same condition, and preserved at −80° C. The freezing preserved cell was melted on ice, suspended with 30 ml of a buffer A (50 mM of tris-buffer containing 20% of glycerol and 0.15M of NaCl (pH 7.4)) to which was added Complete Protease Inhibitor (Behringer), and crushed at 20,000 rpm for 30 seconds three times using Polytron homogenizer (Kinematica). The crushed solution was clarified by centrifugation at 40,000 rpm for 30 minutes, and filtered using a 45 μm filter. The filtrate was passed through a column filled with Anti-FLAG M2 Affinity Gel (Sigma Corp.) in a flow rate of about 0.5 mL/min. The column was washed with a buffer A, and eluted with a buffer A containing 100 μg/mL of FLAG peptide. The eluted solution was concentrated by Vivaspin 20 of MWCO (molecular weight of cut-off) 30K (Vivascience). This concentrated solution was gel-filtrated and purified by a Hi Load Superdex 200 pg 16/60 (Amersham Biosciences) equilibrated with the buffer A. The fraction containing the intracellular domain of HER2 was collected, and glycerol was added thereto to be a 50% of terminal concentration, and then freezing preserved at −80° C.
The test compound dissolved in dimethylsulfoxide (DMSO) was diluted with buffer for measuring the kinase reaction (50 mM of Tris-HCl (pH 7.5), 5 mM of MgCl2, 5 mM MnCl2, 2 mM of dithiothreitol, 0.01% of Tween-20). […]
For `COCCNCCc1ccc(-c2nc3c(Nc4ccc(Oc5ccc(C)nc5)c(C)c4)ncnc3s2)cc1` [Example 41, 2-(4-{2-[(2-methoxyethyl)amino]ethyl}phenyl)-N-{3-methyl-4-[(6-methylpyridin-3-yl)oxy]phenyl}[1,3]thiazolo[5,4-d]pyrimidin-7-amine], the inhibition at 1 µM was determined as 89%.
On to `COCCNCc1ccc(-c2nc3c(Nc4ccc(F)c(Cl)c4)ncnc3s2)cc1` [Example 39, N-(3-chloro-4-fluorophenyl)-2-(4-{[(2-methoxyethyl)amino]methyl}phenyl) [1,3]thiazolo[5,4-d]pyrimidin-7-amine], for which the inhibition at 1 µM was found to be 96%.
Still for that read-out and setting: to `OCCNCc1ccc(-c2nc3c(Nc4ccc(OCc5cccc(F)c5)c(Cl)c4)ncnc3s2)cc1` [Example 26, 2-({4-[7-({3-chloro-4-[(3-fluorobenzyl)oxy]phenyl}amino)[1,3]thiazolo[5,4-d]pyrimidin-2-yl]benzyl}amino)ethanol] belongs 92%.
On to `O=C(CO)NCc1ccc(-c2nc3c(Nc4ccc(OCc5ccsc5)c(Cl)c4)ncnc3s2)cc1` [Example 80, N-[4-(7-{[3-chloro-4-(3-thienylmethoxy)phenyl]amino}[1,3]thiazolo[5,-d]pyrimidin-2-yl)benzyl]-2-hydroxyacetamide], for which the inhibition at 1 µM came to 87%.
On to `OCCNCc1ccc(-c2nc3c(Nc4ccc(Oc5cccc(C(F)(F)F)c5)c(Cl)c4)ncnc3s2)cc1` [Example 58, 2-({4-[7-({3-chloro-4-[3-(trifluoromethyl)phenoxy]phenyl}amino)[1,3]thiazolo[5,4-d]pyrimidin-2-yl]benzyl}amino)ethanol], for which the inhibition at 1 µM is 90%.

The target in the next experiment is T2, EGF receptor kinase (intracellular domain of EGF receptor) (Homo sapiens, UniProt P00533).
T2 construct: FLAG (N); made in house; host or cells: SF-21 insect cells infected with recombinant baculovirus BAC-EGFR
T2 sequence (P00533 669-1210 limits assumed): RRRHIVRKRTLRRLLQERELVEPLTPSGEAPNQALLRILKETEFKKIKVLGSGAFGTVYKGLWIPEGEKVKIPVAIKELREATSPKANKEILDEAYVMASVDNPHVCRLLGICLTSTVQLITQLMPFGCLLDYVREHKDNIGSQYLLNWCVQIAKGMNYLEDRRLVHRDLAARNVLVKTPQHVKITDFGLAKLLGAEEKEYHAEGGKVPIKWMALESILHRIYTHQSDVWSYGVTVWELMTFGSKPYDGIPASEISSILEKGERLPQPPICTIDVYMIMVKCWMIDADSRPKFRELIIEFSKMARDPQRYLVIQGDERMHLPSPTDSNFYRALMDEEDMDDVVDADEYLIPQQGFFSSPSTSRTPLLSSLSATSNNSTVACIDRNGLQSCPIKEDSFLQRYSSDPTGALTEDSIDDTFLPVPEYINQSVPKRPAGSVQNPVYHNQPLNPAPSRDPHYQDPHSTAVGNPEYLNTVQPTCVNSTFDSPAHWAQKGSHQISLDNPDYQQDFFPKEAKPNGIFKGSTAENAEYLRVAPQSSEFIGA
The experiment is described as follows: Measurement of inhibition activity of EGF receptor kinase. Type of experiment: biochemical. Particulars: EGFR kinase; test compound 1.0 μM; biotinyl-poly-Glu:Tyr (4:1), α-screen assay, 25° C. 10 minutes; read-out: Inhibition rate (%) in 1.0 μM. On the procedure: Cloning of Human EGF Receptor Gene was performed with RT-PCR templating total RNA prepared from A431 cell. To attach Flag tag in N-terminal of EGF, a primer used in RT-PCR was manufactured by adding flag peptide coding sequence and restricted enzyme recognition sequence to the base sequence (2182-3810 in Genbank Accession XM—167493) which codes a part of intracellular domain of the protein using an information of base sequence of EGF receptor Gene (Genbank Accession XM—167493). The Base sequence of the primer was shown as below.
as §1, with “and” for “resulting that”, “EGFR” for “the HER2”, “2182-3810” for “2176-3918”, “XM—167493).” for “M11730).”, “BAC-EGFR” for “BAC-HER2”
A SF-21 cell was plated with 1×10^6 cells/ml in a Sf-900II SFM medium (Invitrogen) containing 10% of a fetal bovine serum (Trace), 50 mg/L of Gentamicin (Invitrogen) and 0.1% of Pluronic F-68 (Invitrogen), and cultured with shaking at 27° C. at 100 rpm using a 2 L meyer. After culturing for 24 hours, 13.4 mL of a recombinant baculovirus EGFR was added thereto, and further cultured for 3 days. The cultured solution was centrifuged in 2,000 rpm for 5 minutes, and a virus-infected cell was obtained. The cell was washed with phosphate buffered saline (Invitrogen), centrifuged under the same condition, and then preserved at −80° C. The freezing preserved cell was melted on ice, suspended with 30 mL of a buffer A (50 mM of tris-buffer containing 20% of glycerol and 0.15M of NaCl (pH 7.4)) to which was added Complete Protease Inhibitor (Behringer), and crushed at 20,000 rpm for 30 seconds three times using Polytron homogenizer (Kinematica). The crushed solution was clarified by centrifugation at 40,000 rpm for 30 minutes, and filtered using a 45 μm filter. The filtrate was passed through a column which is filled with Anti-FLAG M2 Affinity Gel (Sigma Corp.) in a flow rate of about 0.5 mL/min. The column was washed with a buffer A, and eluted with a buffer containing 100 μg/ml of FLAG peptide. […]
Regarding `CS(=O)(=O)CCNCCNC(=O)c1nc2c(Nc3ccc(OCc4cccc(F)c4)c(Cl)c3)ncnc2s1` [Example 25, 7-({3-chloro-4-[(3-fluorobenzyl)oxy]phenyl}amino)-N-(2-{[2-(methylsulfonyl)ethyl]amino}ethyl)[1,3]thiazolo[5,4-d]pyrimidine-2-carboxamide], the inhibition at 1 µM came to 88%.
Still for that read-out and setting: the same measure for `CC(=O)NCCCCCc1nc2c(Nc3ccc(OCc4cccc(F)c4)c(Cl)c3)ncnc2s1` [Example 46, N-{5-[7-({3-chloro-4-[(3-fluorobenzyl)oxy]phenyl}amino) [1,3]thiazolo[5,4-d]pyrimidin-2-yl]pentyl}acetamide]: 81%; for `COCCNC(=O)c1nc2c(Nc3ccc(OCc4cccc(F)c4)c(Cl)c3)ncnc2s1` [Example 20, 7-({3-chloro-4-[(3-fluorobenzyl)oxy]phenyl}amino)-N-(2-methoxyethyl) [1,3]thiazolo[5,4-d]pyrimidine-2-carboxamide]: 91%.
On the same count and under the same terms, to `Fc1cccc(COc2ccc(Nc3ncnc4sc(C5CC5)nc34)cc2Cl)c1` [Example 52, N-{3-chloro-4-[(3-fluorobenzyl)oxy]phenyl}-2-cyclopropyl[1,3]thiazolo[5,4-d]pyrimidin-7-amine] belongs 81%.

The values above are taken from patent publication US20080269238A1, “Thiazolopyrimidine Derivative” (TAKEDA PHARMACEUTICAL COMPANY LIMITED, priority 2004, published 2008).
